In patent US20240400591A1 (Jacobio Pharmaceuticals Co., Ltd., priority 2021, published 2024) one finds IC50 and EC50 data, which are given here for 15 compounds.

Like-named read-outs stand apart in the source and are kept apart here.

In one assay the test system is NUGC4 (P53 WT). The assay is described as follows: Cell viability assay (CellTiter-Glo, 6 days), NUGC4. The format is cell-based. The method, boiled down: (§1)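 Cells seeded overnight at 37 °C, then exposed to compounds in medium for 6 days. Viability read by CellTiter-Glo luminescence, normalized to DMSO cell wells (high) and medium-only wells (low); IC50 taken as concentration giving 50% viability from 4-parameter logistic fit.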
For orientation: ATP-based viability assays read luminescence as a measure of living cells.

For another assay, the system named is NUGC3 (P53 Y220C). The assay is described as follows: Cell viability assay (CellTiter-Glo, 6 days), NUGC3. It is filed as cell-based. The method, boiled down: as §1
Assay [1] addresses T1, His-p53 Y220C (94-294) protein (Homo sapiens, UniProt P04637, Y220C).
T1 construct: His-p53 Y220C (94-294) protein
The assay is described as follows: In vitro DNA binding assay (HTRF). The format is biochemical. The following applies: % activation normalized to 2 μM Ref-1a high control. On the technique in general: In TR-FRET formats the signal depends on donor and acceptor labels being close together.

Assay [2] relates to NUGC-3_P53_Luc single clonal cell line (p53 Y220C). Briefly: Reporter gene assay (p53 RE luciferase). It is filed as cell-based. The essentials:
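NUGC-3 cells stably carrying a p53 RE-driven luc2P reporter, washed free of phenol red, exposed to compound for 6 h at 37 °C; luminescence read. Activity normalised between DMSO (low) and Ref-1a 10 μM (high) controls; EC50 from 4-parameter logistic fit or Excel as concentration giving 50% activity.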
Background: Reporter assays use an easily measured gene product as a stand-in for the process of interest.

Where [3] appears, read: cell viability, 6 days, CellTiter-Glo, read-out: NUGC4 (P53 WT) IC50.
The mark [4] stands for this setting: cell viability, 6 days, CellTiter-Glo, read-out: NUGC3 (P53 Y220C) IC50.
Where [5] appears, read: luciferase reporter, 6 hours, normalized to Ref-1a (10 μM) high control, read-out: p53(Y220C)_NUGC-3 EC50.
Where [6] appears, read: Homo sapiens, NUGC-4, 144 h, cell viability, 6 days, CellTiter-Glo, read-out: NUGC4 (P53 WT) IC50.
[7] abbreviates: Homo sapiens, NUGC-3, 144 h, cell viability, 6 days, CellTiter-Glo, read-out: NUGC3 (P53 Y220C) IC50.
Where [8] appears, read: Homo sapiens, NUGC-3, 6 h, luciferase reporter, 6 hours, normalized to Ref-1a (10 μM) high control, read-out: p53(Y220C)_NUGC-3 EC50.
The mark [9] stands for this setting: Homo sapiens, NUGC-3, luciferase reporter, 6 hours, normalized to Ref-1a (10 μM) high control, read-out: p53(Y220C)_NUGC-3 EC50.

As for `COCCNC(=O)c1cc(P(C)(C)=O)ccc1NCC#Cc1sc2c(N[C@@H]3CCN(C)C[C@@H]3Cl)cccc2c1CC(F)(F)F` [Example 219, 2-((3-(7-(((3S,4R)-3-chloro-1-methylpiperidin-4-yl)amino)-3-(2,2,2-trifluoroethyl)benzo[b]thiophen-2-yl)prop-2-yn-1-yl)amino)-5-(dimethylphosphoryl)-N-(2-methoxyethyl)benzamide], the half-inhibitory concentration (IC50) – broadly, the concentration needed to halve the response being measured – with NUGC4 (P53 WT) (Homo sapiens, NUGC-4, 144 h, read-out: NUGC4 (P53 WT) IC50 (μM)) was 19.5 µM; in the assay with NUGC3 (P53 Y220C) (Homo sapiens, NUGC-3, 144 h, read-out: NUGC3 (P53 Y220C) IC50 (μM)) it was 0.36 µM. Besides, the EC50 (in general, the midpoint of the concentration-response curve) was found to be 45 nM in assay [1] and 0.09 µM in assay [2] (Homo sapiens, NUGC-3, 6 h, read-out: p53(Y220C)_NUGC-3 EC50 (μM)).

Consider `COc1cc([S@](C)(=N)=O)ccc1NCC#Cc1sc2c(N[C@@H]3CCN(C)C[C@@H]3F)cccc2c1CC(F)(F)F` [Example 227, (R)-(4-((3-(7-(((3S,4R)-3-fluoro-1-methylpiperidin-4-yl)amino)-3-(2,2,2-trifluoroethyl)benzo[b]thiophen-2-yl)prop-2-yn-1-yl)amino)-3-methoxyphenyl)(imino)(methyl)-16-sulfanone], for which the IC50 with NUGC4 (P53 WT) (setting [3]) is 17.6 µM; in the assay on NUGC3 (P53 Y220C) (setting [4]) it was 0.28 µM. The half-maximal effective concentration (EC50) in assay [1] was 40 nM; in assay [2] (setting [5]), 0.04 µM.

Take `CN1CC[C@@H](Nc2cccc3c(CC(F)(F)F)c(C#CCNc4ccc(P(C)(C)=O)cc4OC(F)(F)F)sc23)[C@@H](F)C1` [Example 138, (4-((3-(7-(((3S,4R)-3-fluoro-1-methylpiperidin-4-yl)amino)-3-(2,2,2-trifluoroethyl)benzo[b]thiophen-2-yl)prop-2-yn-1-yl)amino)-3-(trifluoromethoxy)phenyl)dimethylphosphine oxide]: the IC50 in the assay with NUGC4 (P53 WT) (setting [6]) was determined as 11.1 µM; with NUGC3 (P53 Y220C) (setting [7]), 0.88 µM. The results for the EC50 in assay [1] and in assay [2] (setting [8]) were 34 nM and 0.07 µM, respectively.

`COCCNC(=O)c1ccc(NCC#Cc2sc3c(N[C@@H]4CCN(C)C[C@@H]4F)cccc3c2CC(F)(F)F)c(OC)c1` (relative stereo) [Example 85, 4-((3-(7-(((Z)-3-fluoro-1-methylpiperidin-4-yl)amino)-3-(2,2,2-trifluoroethyl)benzo[b]thiophen-2-yl)prop-2-yn-1-yl)amino)-3-methoxy-N-(2-methoxyethyl)benzamide]: the IC50 with NUGC4 (P53 WT) (setting [6]) turned out to be 8.24 µM; with NUGC3 (P53 Y220C) (setting [7]), 1.54 µM. Moreover, the half-maximal effective concentration (EC50) in assay [1] was found to be 75 nM; in assay [2] (setting [9]), 0.22 µM.

With `COc1cc(P(C)(C)=O)ccc1NCC#Cc1sc2c(NC3CCN(C4CCOCC4)CC3)cccc2c1CC(F)(F)F` [Example 154, (3-methoxy-4-((3-(7-((1-(tetrahydro-2H-pyran-4-yl)piperidin-4-yl)amino)-3-(2,2,2-trifluoroethyl)benzo[b]thiophen-2-yl)prop-2-yn-1-yl)amino)phenyl)dimethylphosphine oxide], the IC50 was 4.19 µM in the assay on NUGC4 (P53 WT) (setting [6]) and 1.89 µM in the assay with NUGC3 (P53 Y220C) (setting [7]). The EC50 in assay [1] was 67 nM; in assay [2] (setting [9]), 0.41 µM.

Turning to `CN1CC[C@@H](Nc2cccc3c(CC(F)(F)F)c(C#CCNc4cc(F)c(P(C)(C)=O)cc4F)sc23)[C@@H](F)C1` (racemic) [Example 91, (2,5-difluoro-4-((3-(7-(((Z)-3-fluoro-1-methylpiperidin-4-yl)amino)-3-(2,2,2-trifluoroethyl)benzo[b]thiophen-2-yl)prop-2-yn-1-yl)amino)phenyl)dimethylphosphine oxide], the IC50 in the assay on NUGC4 (P53 WT) (setting [6]) is 9.41 µM; in the assay with NUGC3 (P53 Y220C) (setting [7]), 1.8 µM. Besides, the EC50 in assay [1] was 102 nM; in assay [2] (setting [9]), 0.26 µM.

As for `[2H]C([2H])([2H])N1CC[C@@H](Nc2cccc3c(CC(F)(F)F)c(C#CCNc4ccc(P(C)(C)=O)cc4OC)sc23)[C@@H](F)C1` [Example 210, (4-((3-(7-(((3S,4R)-3-fluoro-1-(methyl-d3)piperidin-4-yl)amino)-3-(2,2,2-trifluoroethyl)benzo[b]thiophen-2-yl)prop-2-yn-1-yl)amino)-3-methoxyphenyl)dimethylphosphine oxide], the results for the IC50 with NUGC4 (P53 WT) (setting [6]) and in the assay on NUGC3 (P53 Y220C) (setting [7]) were 12 µM and 1.28 µM, respectively. For the same compound, the EC50 in assay [1] is 16 nM; in assay [2] (setting [9]), 0.03 µM.

Regarding `CN1CC[C@@H](Nc2cccc3c(CC(F)(F)F)c(C#CCNc4ccc(P(C)(C)=O)cc4-c4ncon4)sc23)[C@@H](F)C1` [Example 213, (4-((3-(7-(((3S,4R)-3-fluoro-1-methylpiperidin-4-yl)amino)-3-(2,2,2-trifluoroethyl)benzo[b]thiophen-2-yl)prop-2-yn-1-yl)amino)-3-(1,2,4-oxadiazol-3-yl)phenyl)dimethylphosphine oxide], the IC50 in the assay on NUGC4 (P53 WT) (setting [6]) amounted to 9.59 µM; in the assay on NUGC3 (P53 Y220C) (setting [7]), 0.37 µM. Further, the figures for the concentration for a half-maximal effect (EC50) in assay [1] and in assay [2] (setting [9]) were 58 nM and 0.22 µM, respectively.

On to `CP(C)(=O)c1ccc(NCC#Cc2sc3c(N[C@@H]4CCN(C5CCOCC5)C[C@@H]4F)cccc3c2CC(F)(F)F)c(OC2CC2)c1` [Example 161, (3-cyclopropoxy-4-((3-(7-(((3S,4R)-3-fluoro-1-(tetrahydro-2H-pyran-4-yl)piperidin-4-yl)amino)-3-(2,2,2-trifluoroethyl)benzo[b]thiophen-2-yl)prop-2-yn-1-yl)amino)phenyl)dimethylphosphine oxide], for which the IC50 in the assay on NUGC4 (P53 WT) (setting [6]) worked out at 12.9 µM; in the assay on NUGC3 (P53 Y220C) (setting [7]) it was 1.15 µM. For the same compound, the EC50 was 73 nM in assay [1] and 0.12 µM in assay [2] (setting [9]).

`[2H]C([2H])([2H])Oc1cc(P(C)(C)=O)ccc1NCC#Cc1sc2c(N[C@@H]3CCN(C4CCOCC4)C[C@@H]3F)cccc2c1CC(F)(F)F` [Example 184, (4-((3-(7-(((3S,4R)-3-fluoro-1-(tetrahydro-2H-pyran-4-yl)piperidin-4-yl)amino)-3-(2,2,2-trifluoroethyl)benzo[b]thiophen-2-yl)prop-2-yn-1-yl)amino)-3-(methoxy-d3)phenyl)dimethylphosphine oxide]: the IC50 in the assay on NUGC4 (P53 WT) (setting [6]) was found to be 4.46 µM; in the assay on NUGC3 (P53 Y220C) (setting [7]), 0.44 µM. Further, the concentration giving a half-maximal response (EC50) in assay [1] is 42 nM; in assay [2] (setting [9]), 0.1 µM.

Take `CNC(=O)c1cc(OC)c(NCC#Cc2sc3c(NC4CCN(C)CC4F)cccc3c2CC(F)(F)F)cn1` (stereo not drawn) [Example 60, 5-((3-(3-(2,2,2-trifluoroethyl)-7-(((Z)-3-fluoro-1-methylpiperidin-4-yl)amino)benzo[b]thiophen-2-yl)prop-2-yn-1-yl)amino)-4-methoxy-N-methylpicolinamide]: the values for the IC50 in the assay with NUGC4 (P53 WT) (setting [3]) and in the assay with NUGC3 (P53 Y220C) (setting [4]) were 6.1 µM and 1.95 µM, respectively. Besides, the EC50 in assay [1] came to 72 nM; in assay [2] (setting [5]) it was 0.47 µM.

Regarding `COc1cc(P(C)(C)=O)ccc1NCC#Cc1sc2c(N[C@@H]3CCN(C)C[C@@H]3F)cccc2c1CC(F)(F)F` [Example 115, (4-((3-(7-(((3S,4R)-3-fluoro-1-methylpiperidin-4-yl)amino)-3-(2,2,2-trifluoroethyl)benzo[b]thiophen-2-yl)prop-2-yn-1-yl)amino)-3-methoxyphenyl)dimethylphosphine oxide], the IC50 with NUGC4 (P53 WT) (setting [6]) was found to be 8.58 µM; in the assay on NUGC3 (P53 Y220C) (setting [7]), 0.24 µM. In addition, the half-maximal effective concentration (EC50) was determined as 23 nM in assay [1] and 0.03 µM in assay [2] (setting [8]).

Regarding `COCC(O)CN1CC[C@@H](Nc2cccc3c(CC(F)(F)F)c(C#CCNc4ccc(S(C)(=O)=O)cc4OC)sc23)[C@@H](F)C1` (mixture of isomers) [Example 6, 1-((Z)-3-fluoro-4-((2-(3-((2-methoxy-4-(methylsulfonyl)phenyl)amino)prop-1-yn-1-yl)-3-(2,2,2-trifluoroethyl)benzo[b]thiophen-7-yl)amino)piperidin-1-yl)-3-methoxypropan-2-ol], the IC50 stood at 6.83 µM in the assay with NUGC4 (P53 WT) (setting [6]) and 1.19 µM in the assay on NUGC3 (P53 Y220C) (setting [7]). Besides, the EC50 in assay [1] is 130 nM; in assay [2] (setting [9]), 0.36 µM.

As to `CCP(=O)(CC)c1ccc(NCC#Cc2sc3c(N[C@@H]4CCN(C)C[C@@H]4F)cccc3c2CC(F)(F)F)c(OCF)c1` (racemic) [Example 66, diethyl(4-((3-(7-(((Z)-3-fluoro-1-methylpiperidin-4-yl)amino)-3-(2,2,2-trifluoroethyl)benzo[b]thiophen-2-yl)prop-2-yn-1-yl)amino)-3-(fluoromethoxy)phenyl)phosphine oxide], the IC50 with NUGC4 (P53 WT) (setting [6]) was 10.3 µM; in the assay on NUGC3 (P53 Y220C) (setting [7]), 0.82 µM. Further, the EC50 in assay [1] is 60 nM; in assay [2] (setting [9]), 0.12 µM.

As to `COc1cc(P(C)(C)=O)ccc1NCC#Cc1sc2c(NC3[C@@H]4COC[C@H]3CN(C)C4)cccc2c1CC(F)(F)F` (single isomer, unassigned) [Example 197], the IC50 with NUGC4 (P53 WT) (setting [6]) came to 11.5 µM; in the assay with NUGC3 (P53 Y220C) (setting [7]), 0.39 µM. Moreover, the EC50 in assay [1] came out at 26 nM; in assay [2] (setting [9]) it was 0.12 µM.
